Measured values: PMC12455397 (Angewandte Chemie (International Ed. in English), 2025)

How the values were obtained:
[1] = test system: Nrf2-regulated genes (AKR1B10, NQO1, TRXR1, HO-1) in HaCaT human keratinocytes; assay: HaCaT cell assay, Western Blotting of Nrf2-regulated proteins; type: cell-based; conditions: HaCaT, 10 µM, 24 h
human Keap1 Kelch = human Keap1 Kelch (Homo sapiens, UniProt Q14145); assay: Fluorescence polarization (FP) competition assay with Cy5-Nrf2 peptide probe; conditions: ≥3 individual measurements
human Keap1 Kelch, sequence (Q14145 321-609): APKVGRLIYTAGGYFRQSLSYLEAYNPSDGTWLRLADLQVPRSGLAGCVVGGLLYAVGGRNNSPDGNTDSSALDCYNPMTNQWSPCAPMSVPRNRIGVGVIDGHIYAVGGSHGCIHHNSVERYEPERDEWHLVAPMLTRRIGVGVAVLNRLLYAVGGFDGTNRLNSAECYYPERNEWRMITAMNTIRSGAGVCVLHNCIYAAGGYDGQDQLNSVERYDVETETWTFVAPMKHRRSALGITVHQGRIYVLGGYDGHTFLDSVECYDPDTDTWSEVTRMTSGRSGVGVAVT

[2] = FP (Ki/nM), Table S2, mean ± SEM, NA: not active (measured up to 4 mM)
[3] = Ki (FP), mean, text and figures

Ki (human Keap1 Kelch; [2]) [nM] | Ki (human Keap1 Kelch; [3]) [nM] | Structure (SMILES) | protein levels of Nrf2-regulated genes by WB [1]
57.1 ± 4.8 | 57 | O=C(O)CC(c1ccc2c(c1)OCO2)c1ccc2ccc(OCC(=O)NC3CCCCC3)cc2c1 (stereo not drawn) [Compound 29] | 
24.5 ± 1.7 | 25 | O=C(O)CC(c1ccc2c(c1)OCO2)c1ccc2ccc(OCC(=O)NC3C=CCCC3)cc2c1 (stereo not drawn) [Compound 39] | 
26.7 ± 4.2 | 27 | O=C(O)CC(c1ccc2c(c1)CCO2)c1ccc2ccc(OCC(=O)NC3C=CCCC3)cc2c1 (stereo not drawn) [Compound 40] | strong bands in WB for all tested proteins
21.1 ± 1.5 | 21 | O=C(O)CC(c1ccc2ccc(OCC(=O)NC3C=CCCC3)cc2c1)c1ccc2occc2c1 (stereo not drawn) [Compound 41] | 
29.9 ± 2.2 | 30 | O=C(O)CC(c1ccc2c(c1)OC(F)(F)O2)c1ccc2ccc(OCC(=O)NC3C=CCCC3)cc2c1 (stereo not drawn) [Compound 42] | 
20.3 ± 2.1 | 20 | O=C(O)CC(c1ccc2c(c1)OCCO2)c1ccc2ccc(OCC(=O)NC3C=CCCC3)cc2c1 (stereo not drawn) [Compound 43] | 
 | 3.9 | Cc1cc2c(cc1C(CC(=O)O)c1ccc3ccc(OCC(=O)NC4C=CCCC4)cc3c1)OCO2 (stereo not drawn) [Compound 44] | strong bands in WB for all tested proteins

Second part, the compound before the results:

Structure (SMILES) | Ki (human Keap1 Kelch; [2]) [nM] | Ki (human Keap1 Kelch; [3]) [nM] | protein levels of Nrf2-regulated genes by WB [1]
Cc1cc2c(cc1C(CC(=O)O)c1ccc3ccc(OCC(=O)NC4CCCCCC4)cc3c1)CCO2 (stereo not drawn) [Compound 25] | 18.8 ± 1.7 | 19 | strong bands in WB for all tested proteins
Cc1cc2occc2cc1C(CC(=O)O)c1ccc2ccc(OCC(=O)NC3CCCCCC3)cc2c1 (stereo not drawn) [Compound 26] | 15.6 ± 2.6 | 16 | 
Cc1cc2c(cc1C(CC(=O)O)c1ccc3ccc(OCC(=O)NC4CCCCCC4)cc3c1)OC(F)(F)O2 (stereo not drawn) [Compound 27] | 14.1 ± 2.4 | 14 | 
O=C(O)CC(c1ccc2c(c1)CCO2)c1ccc2ccc(OCC(=O)NC3CCCCC3)cc2c1 (stereo not drawn) [Compound 30] | 82.1 ± 7.9 | 82 | 
O=C(O)CC(c1ccc2ccc(OCC(=O)NC3CCCCC3)cc2c1)c1ccc2occc2c1 (stereo not drawn) [Compound 31] | 68.2 ± 12 | 68 | 
O=C(O)CC(c1ccc2c(c1)OC(F)(F)O2)c1ccc2ccc(OCC(=O)NC3CCCCC3)cc2c1 (stereo not drawn) [Compound 32] | 51.4 ± 4.8 | 51 | 
O=C(O)CC(c1ccc2c(c1)OCCO2)c1ccc2ccc(OCC(=O)NC3CCCCC3)cc2c1 (stereo not drawn) [Compound 33] | 29.3 ± 1.7 | 29 | 
Cc1cc2c(cc1C(CC(=O)O)c1ccc3ccc(OCC(=O)NC4CCCCC4)cc3c1)OCO2 (stereo not drawn) [Compound 34] | 18.1 ± 5.9 | 18 | 
Cc1cc2c(cc1C(CC(=O)O)c1ccc3ccc(OCC(=O)NC4CCCCC4)cc3c1)CCO2 (stereo not drawn) [Compound 35] | 32.4 ± 1.3 | 32 | 
Cc1cc2occc2cc1C(CC(=O)O)c1ccc2ccc(OCC(=O)NC3CCCCC3)cc2c1 (stereo not drawn) [Compound 36] | 24.4 ± 0.4 | 24 | 
Cc1cc2c(cc1C(CC(=O)O)c1ccc3ccc(OCC(=O)NC4CCCCC4)cc3c1)OC(F)(F)O2 (stereo not drawn) [Compound 37] |  | 7.1 | 
Cc1cc2c(cc1C(CC(=O)O)c1ccc3ccc(OCC(=O)NC4CCCCC4)cc3c1)OCCO2 (stereo not drawn) [Compound 38] | 14.9 ± 0.8 | 15 | 
Cc1cc2c(cc1C(CC(=O)O)c1ccc3ccc(OCC(=O)NC4C=CCCC4)cc3c1)CCO2 (stereo not drawn) [Compound 45] | 18.3 ± 2.4 | 18 | 
Cc1cc2occc2cc1C(CC(=O)O)c1ccc2ccc(OCC(=O)NC3C=CCCC3)cc2c1 (stereo not drawn) [Compound 46] | 17.8 ± 3.4 | 18 | 
Cc1cc2c(cc1C(CC(=O)O)c1ccc3ccc(OCC(=O)NC4C=CCCC4)cc3c1)OC(F)(F)O2 (stereo not drawn) [Compound 47] | 16.1 ± 3.8 | 16 | 
Cc1cc2c(cc1C(CC(=O)O)c1ccc3ccc(OCC(=O)NC4C=CCCC4)cc3c1)OCCO2 (stereo not drawn) [Compound 48] | 19.2 ± 2.4 | 19 | strong bands in WB for all tested proteins
